Reference: patent publication US20050187288A1, “Beta-lapachone and methods of treating cancer” (priority 2004, published 2005)
“And” between values parts separate entries of the source, which are not always exact repeats. Equal values may be shown once. Read-outs that look alike come from different tables or passages of the source.

Experiments:
60 cancer cell lines = test: NCI in vitro screen of 60 cancer cell lines, sulforhodamine B assay; assay type: cell-based; conditions: Homo sapiens, 60 cell, read-out: LC50 (log10 molar concentration causing 50% lethality), mean across all cells (converted)
Description: The NCI screen includes cell lines isolated from leukemia, non-small cell lung cancer (NSCLC), colon, […] (CNS), melanoma, ovarian, renal, prostate and breast cancer tissues.
The NCI assays were performed under standardized conditions and use the sulforhodamine B assay as the endpoint. The NCI set of 60 lines included nine colon cancer cell lines (COLO 205, DLD-1, HCC-2998, HCT-116, HCT-15, HT29, KM12, KM20L2, and SW-620).
The NCI assays were performed under standardized conditions and use the sulforhodamine B assay as the endpoint. The NCI set of 60 lines included twelve non-small cell lung cancer cell lines (A549, EKVX, HOP-18, HOP-19, HOP-62, HOP-92, NCI-H226, NCI-H23, NCI-H322M, NCI-H460, NCI-H522, and LXFL 529), and three small cell lung cancer cell lines (DMS 114, DMS 273, AND SHP-77).

[1] = tested on: multiple myeloma (MM) cells; test: MTT assay of multiple myeloma cells; assay type: cell-based, human; conditions: 4 μM, 24 h, all seven MM cell lines
[2] = dog, in vivo
Source text: On Day 23 of the study, 4 animals/sex/group were euthanized (barbiturate overdose) followed by exsanguination and subjected to necropsy as described below.

[3] = tested on: A549 human lung cancer cells; conditions: 60 mg/kg IP every three days, 8 treatments
Description: Athymic female nude mice (Ncr) were inoculated subcutaneously with 4×10^6 A549 human lung cancer cells, and the tumors were allowed to grow to 50 mm^3 in size. The animals were randomized into three groups of seven animals per group. […] Mean tumor volume was then analyzed.

MCF-7 = conditions: human, 4 h
Description: (§4) Control plates received the same volume of DMSO alone. After a 4 hour exposure the drug was carefully removed, and drug-free medium could be added. […] Colonies of greater than 50 cells were scored as survivors. Cells were maintained at 37° C. in 5% CO2 in complete humidity.

[4] = Pharmacokinetic profile of intraperitoneal dosing in mice, Lipiodol formulation; conditions: IP 150 mg/m^2 in Lipiodol
Description: A study was performed to determine the pharmacokinetic profile of intraperitoneal (IP) dosing in mice.

[5] = Study 1B: dose-range-finding single dose intravenous toxicity study in rats
Source text: In Study No. 1B, five groups of six adult Sprague-Dawley rats (three male and three female) were randomized to treatment groups and treated via intravenous infusion as shown in
Other observations included clinical signs, body weights and food consumption. On Day 8, animals were anesthetized with CO2 and blood for testing was collected by cardiocentesis, then animals were euthanized by CO2 asphyxiation and subjected to gross necropsy with histopathological evaluation performed on major organs (lungs, heart, liver, brain, spleen and kidneys).

A549 lung cancer cells = test: cells; conditions: Homo sapiens, A549, read-out: LC50, A549 Clone B surviving >LC99
human PBMC = test: MTT cytotoxicity on PBMC; assay type: cell-based; conditions: 0.5, 2, 4, and 8 μM for 24 h
Description: Proliferating PBMC were generated by 72 h incubation with phytohemagglutinin (PHA) at 2 μg/mL.

[6] = Study 2B: dose-range-finding toxicity study, single intravenous administration in dogs; conditions: two dogs
Description: The time interval between each dose was three to four days.
Whole blood samples (1 ml/sample) were also collected on each day of dose administration for toxicokinetics analysis.

[7] = Stability on incubation in human plasma; assay type: in vitro ADME; conditions: incubated in human plasma at 37° C. for 16 hrs; previous studies
SK-MEL-28 [8] = conditions: human, 4 h
Description: as §4

[9] = tested on: normal breast epithelial cells (MCF-10A); test: Colony formation assay, cancer vs normal breast cells; assay type: cell-based, human; conditions: 4 h treatment
Source text: (§1) After 10-20 days, cells were fixed and stained with modified Wright-Giemsa stain.

SK-MEL-28 [10] = test: cells; conditions: Homo sapiens, SK-MEL-28, read-out: LC50 (Replicate Results), SK-MEL-28, 4 hour exposure, colonies after 14-21 days
Description: as §4

SK-OV-3 = conditions: human, 4 h
Description: as §4

BxPC-3 = test: cells; conditions: Homo sapiens
Source text: (§2) Control plates received the same volume of DMSO alone.
(§3) Control plates receive the same volume of DMSO alone. […] Each “Replicate Result” represents the result of a separate experiment.

PaCa-2 = test: cells
Source text: as §2, §3

[11] = Study 6B: two week intravenous repetitive dose toxicity study in rats; conditions: 45 mg/kg, one animal, Day 15
[12] = tested on: human breast cancer cells (MCF-7); test: Colony formation assay, cancer vs normal breast cells; assay type: cell-based; conditions: MCF-7, 4 h treatment
Source text: as §1

[13] = Study 5B: four week intravenous toxicity study in rats; conditions: for creatine kinase elevation: Day 1
Source text: Blood samples were taken for hematology and clinical chemistry (Days 1, 15 and 24) and coagulation (Day 24 only) and clinical chemistry evaluation.

CC1(C)CCC2=C(O1)c1ccccc1C(=O)C2=O [β-lapachone, 3,4-dihydro-2,2-dimethyl-2H-naphtho [1,2-b]pyran-5,6-dione]
CC50 (60 cancer cell lines): 8.51 µM
cell viability in cultures [1]: significantly decreased
plasma levels (preliminary toxicokinetic results) [2]: significantly above the values predicted
tolerability ([2]; iv, 5 mg/kg): well-tolerated
reduction of mean tumor volume [3]: approximately 50%
CC50 (MCF-7): 1.56 µM
peak plasma level [4]: approximately 8 μM
time at which peak plasma levels were achieved [4]: within one-half hour
clinical signs ([5]; 60 mg/kg, 1-2 hours after dosing, resolved by Day 2): transient clinical signs
histopathological findings ([5]; 75 mg/kg group): Minimal to mild hepatocellular vacuolation and renal tubular epithelial pallor and attenuation
mortality and clinical signs ([5]; 30 or 45 mg/kg dose groups): No mortality or clinical signs of toxicity
hematology and serum chemistry values ([5]; all groups): generally unremarkable
NOEL ([5]; single one-hour intravenous dose at 3 mg/ml, male and female rats): 45 mg/kg
CC50 (A549 lung cancer cells): 1.5 µM
cytotoxicity to fresh or proliferating PBMC growth (human PBMC): No cytotoxicity
total bilirubin levels ([6]; 45 mg/kg dose, predose 0.38 and 0.26): 0.66 mg/dL and 0.87 mg/dL
hemoglobin at end of study ([6]; 11-day study, declined from 14.9 and 13.5): 9.1 g/dL and 9.7 g/dL
stability in human plasma [7]: stable to degradation
CC50 (SK-MEL-28 [8]): 2.63 µM
number of colonies [9]: no reduction in the number of colonies
CC50 (SK-MEL-28 [10]): 2.4 µM
CC50 (SK-OV-3): 1.29 µM
CC50 (BxPC-3; BXPC-3, read-out: LC50 (Replicate Results)): 1.89 µM
CC50 (BxPC-3; BXPC-3, read-out: LC50 (Replicate Results), BxPC-3, 4 hour exposure, colonies after 14-21 days): 1.89 µM
CC50 (PaCa-2; Homo sapiens, PaCa-2, read-out: LC50 (Replicate Results)): 1.68 µM
CC50 (PaCa-2; Homo sapiens, PaCa-2, read-out: LC50 (Replicate Results), PaCa-2, 4 hour exposure, colonies after 14-21 days): 1.68 µM
CC50 (PaCa-2; human, 4 h): 1.52 µM
total bilirubin ([11]; ULN 0.27): 0.46 mg/dL
blood urea nitrogen ([11]; ULN 19): 40 mg/dL
creatinine phosphokinase ([11]; ULN 513): 553 IU/L
concentrations giving essentially complete elimination of colonies [12]: ≥ 24 µM
mortality and clinical signs ([13]; 30 mg/kg dose group): No mortality or clinical signs of toxicity
creatine kinase elevation ([13]; 30 mg/kg): 2 fold upper limit of normal
creatine kinase elevation ([13]; 45 mg/kg): 4 fold upper limit of normal
reticulocyte count ([13]; high dose group (45 mg/kg), Day 15, controls 2.1%): 4.1%
